Like-named read-outs stand apart in the source and are kept apart here.
Tests used:
[1] = biological target: GLP-1R (Homo sapiens, UniProt P43220); assay: HitHunter cAMP assay (GLP-1R); type: cell-based; details: cAMP; for Emax: read-out: (Emax) GLP-1R
Protocol: (§1) Suspension cells were harvested and resuspended in 1×HBSS (+10 mM HEPES, 625 μM IBMX, 0.2% BSA) according to the following procedure: 5 μL of 2× cell suspension+1× antibody were added to each well, where the optimal cell density was 10,000 cells per well in a low volume 384-well plate. Agonist serial dilutions in a separate 384 well dilution plate in a 22-point series of 2× dilutions of agonist in DMSO were performed as follows. 80 μL of the highest concentration of Agonist/DMSO was added to well No. 1. 40 μL was removed from well No. 1 and added it to well No. 2, followed by gentle mixing. […] This process was repeated until well No. 22. Additional serial dilutions for additional agonists were set up in a similar manner. 50 nL of each 2× agonist serial dilution was added in duplicate to the designated agonist rows of the assay plate using the Labcyte ECHO. Assay plate was incubated for 30 minutes at room temperature. Following agonist incubation, 5 μL of cAMP Antibody Reagent was added to all wells. […] Plates were spun down briefly. Assay plate was incubated for 1 hour at room temperature in the dark for the immunocompetition reaction to occur. […] Plates were spun down briefly. Assay plate was incubated O/N at room temperature in the dark. Samples were read on Tecan i-control plate reader using luminescence mode with 300 ms integration time. Data analysis was performed using GraphPad Prism.

[2] = biological target: T1, GIP-R (Homo sapiens, UniProt P48546); assay: HitHunter cAMP assay (GIP-R); type: cell-based; details: Table 3A; cAMP; read-out: (Emax) GIP-R
T1 sequence (P48546 22-466): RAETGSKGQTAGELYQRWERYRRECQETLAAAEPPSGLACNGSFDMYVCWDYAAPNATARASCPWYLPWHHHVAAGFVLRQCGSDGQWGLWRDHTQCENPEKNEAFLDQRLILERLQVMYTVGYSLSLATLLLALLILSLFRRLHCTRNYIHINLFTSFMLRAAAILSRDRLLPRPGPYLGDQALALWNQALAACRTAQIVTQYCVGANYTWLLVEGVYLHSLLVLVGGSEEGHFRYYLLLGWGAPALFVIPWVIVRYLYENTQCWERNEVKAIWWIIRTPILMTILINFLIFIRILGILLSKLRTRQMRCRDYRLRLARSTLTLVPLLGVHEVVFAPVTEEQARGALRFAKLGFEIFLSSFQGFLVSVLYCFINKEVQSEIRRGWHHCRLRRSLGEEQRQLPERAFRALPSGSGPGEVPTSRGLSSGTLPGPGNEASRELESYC
Protocol: as §1

[3] = Table 3A, read-out: EC50 GLP-1R/nM

Chain of GLP-1R (P43220 24-463): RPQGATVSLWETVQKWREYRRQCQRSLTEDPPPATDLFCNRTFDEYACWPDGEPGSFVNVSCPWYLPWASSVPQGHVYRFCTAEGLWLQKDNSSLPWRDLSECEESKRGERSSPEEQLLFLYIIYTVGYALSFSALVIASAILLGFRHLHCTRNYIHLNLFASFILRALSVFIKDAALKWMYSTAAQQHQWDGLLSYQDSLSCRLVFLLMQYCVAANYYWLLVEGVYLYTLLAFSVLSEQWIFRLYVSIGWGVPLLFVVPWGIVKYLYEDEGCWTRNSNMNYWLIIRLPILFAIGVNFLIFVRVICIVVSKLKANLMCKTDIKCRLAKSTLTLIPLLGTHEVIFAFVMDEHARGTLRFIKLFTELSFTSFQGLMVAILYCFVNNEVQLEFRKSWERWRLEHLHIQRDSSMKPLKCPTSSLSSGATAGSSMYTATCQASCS

## CCCCCCCCCCCCCCCC(=O)N[C@@H](CCC(=O)NCCCC[C@H](NC(=O)[C@H](CO)NC(=O)[C@@H]1CCCN1C(=O)[C@@H]1CCCN1C(=O)[C@@H]1CCCN1C(=O)[C@H](C)NC(=O)CNC(=O)[C@H](CO)NC(=O)[C@H](CO)NC(=O)[C@@H]1CCCN1C(=O)CNC(=O)CNC(=O)[C@H](C)NC(=O)[C@H](CC(C)C)NC(=O)[C@H](CC(C)C)NC(=O)[C@H](Cc1c[nH]c2ccccc12)NC(=O)[C@H](CC(N)=O)NC(=O)[C@@H](NC(=O)[C@H](Cc1ccccc1)NC(=O)[C@H](CCC(=O)O)NC(=O)C(C)(C)NC(=O)[C@H](C)NC(=O)[C@H](C)NC(=O)[C@H](CCC(N)=O)NC(=O)[C@H](CCCCN)NC(=O)[C@H](CC(=O)O)NC(=O)[C@H](CC(C)C)NC(=O)[C@H](Cc1ccc(O)cc1)NC(=O)[C@@H](NC(=O)[C@H](CO)NC(=O)[C@H](Cc1ccc(O)cc1)NC(=O)[C@H](CC(=O)O)NC(=O)[C@H](CO)NC(=O)[C@@H](NC(=O)[C@H](Cc1ccccc1)NC(=O)[C@@H](NC(=O)CNC(=O)[C@@H](CCc1nn[nH]n1)NC(=O)CSCC(=O)NCCN1CCCCC1=O)[C@@H](C)O)[C@@H](C)O)[C@@H](C)CC)C(C)C)C(N)=O)C(=O)O [Compound 222]
[1]; Table 3A
  Emax: 99%
[1]; [3]
  EC50: 1 to 10 nM

## CCCCCCCCCCCCCCCC(=O)N[C@@H](CCC(=O)NCCCC[C@H](NC(=O)[C@H](CO)NC(=O)[C@@H]1CCCN1C(=O)[C@@H]1CCCN1C(=O)[C@@H]1CCCN1C(=O)[C@H](C)NC(=O)CNC(=O)[C@H](CO)NC(=O)[C@H](CO)NC(=O)[C@@H]1CCCN1C(=O)CNC(=O)CNC(=O)[C@H](C)NC(=O)[C@H](CC(C)C)NC(=O)[C@H](CC(C)C)NC(=O)[C@H](Cc1c[nH]c2ccccc12)NC(=O)[C@H](CC(N)=O)NC(=O)[C@@H](NC(=O)[C@H](Cc1ccccc1)NC(=O)[C@H](CCC(=O)O)NC(=O)C(C)(C)NC(=O)[C@H](C)NC(=O)[C@H](C)NC(=O)[C@H](CCC(N)=O)NC(=O)[C@H](CCCCN)NC(=O)[C@H](CC(=O)O)NC(=O)[C@H](CC(C)C)NC(=O)[C@H](Cc1ccc(O)cc1)NC(=O)[C@@H](NC(=O)[C@H](CO)NC(=O)[C@H](Cc1ccc(O)cc1)NC(=O)[C@H](CC(=O)O)NC(=O)[C@H](CO)NC(=O)[C@@H](NC(=O)[C@H](Cc1ccccc1)NC(=O)[C@@H](NC(=O)CNC(=O)[C@H](CCC(=O)O)NC(=O)CSCC(=O)NCCN1CCC[C@@H](C)C1=O)[C@@H](C)O)[C@@H](C)O)[C@@H](C)CC)C(C)C)C(N)=O)C(=O)O (single isomer, unassigned) [Compound 208]
[2]
  Emax: 59%

## CCCCCCCCCCCCCCCC(=O)N[C@@H](CCC(=O)NCCCC[C@H](NC(=O)[C@H](CO)NC(=O)[C@@H]1CCCN1C(=O)[C@@H]1CCCN1C(=O)[C@@H]1CCCN1C(=O)[C@H](C)NC(=O)CNC(=O)[C@H](CO)NC(=O)[C@H](CO)NC(=O)[C@@H]1CCCN1C(=O)CNC(=O)CNC(=O)[C@H](C)NC(=O)[C@H](CC(C)C)NC(=O)[C@H](CC(C)C)NC(=O)[C@H](Cc1c[nH]c2ccccc12)NC(=O)[C@H](CC(N)=O)NC(=O)[C@@H](NC(=O)[C@H](Cc1ccccc1)NC(=O)[C@H](CCC(=O)O)NC(=O)C(C)(C)NC(=O)[C@H](C)NC(=O)[C@H](C)NC(=O)[C@H](CCC(N)=O)NC(=O)[C@H](CCCCN)NC(=O)[C@H](CC(=O)O)NC(=O)[C@H](CC(C)C)NC(=O)[C@H](Cc1ccc(O)cc1)NC(=O)[C@@H](NC(=O)[C@H](CO)NC(=O)[C@H](Cc1ccc(O)cc1)NC(=O)[C@H](CC(=O)O)NC(=O)[C@H](CO)NC(=O)[C@@H](NC(=O)[C@H](Cc1ccccc1)NC(=O)[C@@H](NC(=O)CNC(=O)[C@H](CCC(=O)O)NC(=O)CSCC(=O)NCCN1CC[C@@H](O)CC1=O)[C@@H](C)O)[C@@H](C)O)[C@@H](C)CC)C(C)C)C(N)=O)C(=O)O (single isomer, unassigned) [Compound 203]
[2]
  Emax: 44%

## CCCCCCCCCCCCCCCC(=O)N[C@@H](CCC(=O)NCCCC[C@H](NC(=O)[C@H](CO)NC(=O)[C@@H]1CCCN1C(=O)[C@@H]1CCCN1C(=O)[C@@H]1CCCN1C(=O)[C@H](C)NC(=O)CNC(=O)[C@H](CO)NC(=O)[C@H](CO)NC(=O)[C@@H]1CCCN1C(=O)CNC(=O)CNC(=O)[C@H](C)NC(=O)[C@H](CC(C)C)NC(=O)[C@H](CC(C)C)NC(=O)[C@H](Cc1c[nH]c2ccccc12)NC(=O)[C@H](CC(N)=O)NC(=O)[C@@H](NC(=O)[C@H](Cc1ccccc1)NC(=O)[C@H](CCC(=O)O)NC(=O)C(C)(C)NC(=O)[C@H](C)NC(=O)[C@H](C)NC(=O)[C@H](CCC(N)=O)NC(=O)[C@H](CCCCN)NC(=O)[C@H](CC(=O)O)NC(=O)[C@H](CC(C)C)NC(=O)[C@H](Cc1ccc(O)cc1)NC(=O)[C@@H](NC(=O)[C@H](CO)NC(=O)[C@H](Cc1ccc(O)cc1)NC(=O)[C@H](CC(=O)O)NC(=O)[C@H](CO)NC(=O)[C@@H](NC(=O)[C@H](Cc1ccccc1)NC(=O)[C@@H](NC(=O)CNC(=O)[C@H](CCC(=O)O)NC(=O)CSCC(=O)NCCN1C(=O)CC(C)(C(C)C)C1=O)[C@@H](C)O)[C@@H](C)O)[C@@H](C)CC)C(C)C)C(N)=O)C(=O)O (mixture of isomers) [Compound 101]
[1]; EC50 GLP-1R/nM, Table 3
  EC50: 10 to 100 nM
[1]; EC50 GLP-1R/nM, Table 3A
  EC50: 10 to 100 nM
[1]; Table 3
  Emax: 92%
[1]; Table 3A
  Emax: 92%

## CCCCCCCCCCCCCCCC(=O)N[C@@H](CCC(=O)NCCCC[C@H](NC(=O)[C@H](CO)NC(=O)[C@@H]1CCCN1C(=O)[C@@H]1CCCN1C(=O)[C@@H]1CCCN1C(=O)[C@H](C)NC(=O)CNC(=O)[C@H](CO)NC(=O)[C@H](CO)NC(=O)[C@@H]1CCCN1C(=O)CNC(=O)CNC(=O)[C@H](C)NC(=O)[C@H](CC(C)C)NC(=O)[C@H](CC(C)C)NC(=O)[C@H](Cc1c[nH]c2ccccc12)NC(=O)[C@H](CC(N)=O)NC(=O)[C@@H](NC(=O)[C@H](Cc1ccccc1)NC(=O)[C@H](CCC(=O)O)NC(=O)C(C)(C)NC(=O)[C@H](C)NC(=O)[C@H](C)NC(=O)[C@H](CCC(N)=O)NC(=O)[C@H](CCCCN)NC(=O)[C@H](CC(=O)O)NC(=O)[C@H](CC(C)C)NC(=O)[C@H](Cc1ccc(O)cc1)NC(=O)[C@@H](NC(=O)[C@H](CO)NC(=O)[C@H](Cc1ccc(O)cc1)NC(=O)[C@H](CC(=O)O)NC(=O)[C@H](CO)NC(=O)[C@@H](NC(=O)[C@H](Cc1ccccc1)NC(=O)[C@@H](NC(=O)CNC(=O)[C@H](CCC(=O)O)NC(=O)C(=O)NCCN1CCCCC1=O)[C@@H](C)O)[C@@H](C)O)[C@@H](C)CC)C(C)C)C(N)=O)C(=O)O [Compound 215]
[1]; Table 3A
  Emax: 103%
[1]; [3]
  EC50: 1 to 10 nM

## CCCCCCCCCCCCCCCC(=O)N[C@@H](CCC(=O)NCCCC[C@H](NC(=O)[C@H](CO)NC(=O)[C@@H]1CCCN1C(=O)[C@@H]1CCCN1C(=O)[C@@H]1CCCN1C(=O)[C@H](C)NC(=O)CNC(=O)[C@H](CO)NC(=O)[C@H](CO)NC(=O)[C@@H]1CCCN1C(=O)CNC(=O)CNC(=O)[C@H](C)NC(=O)[C@H](CC(C)C)NC(=O)[C@H](CC(C)C)NC(=O)[C@H](Cc1c[nH]c2ccccc12)NC(=O)[C@H](CC(N)=O)NC(=O)[C@@H](NC(=O)[C@H](Cc1ccccc1)NC(=O)[C@H](CCC(=O)O)NC(=O)C(C)(C)NC(=O)[C@H](C)NC(=O)[C@H](C)NC(=O)[C@H](CCC(N)=O)NC(=O)[C@H](CCCCN)NC(=O)[C@H](CC(=O)O)NC(=O)[C@H](CC(C)C)NC(=O)[C@H](Cc1ccc(O)cc1)NC(=O)[C@@H](NC(=O)[C@H](CO)NC(=O)[C@H](Cc1ccc(O)cc1)NC(=O)[C@H](CC(=O)O)NC(=O)[C@H](CO)NC(=O)[C@@H](NC(=O)[C@H](Cc1ccccc1)NC(=O)[C@@H](NC(=O)CNC(=O)[C@H](CCC(=O)O)NC(=O)CSCC(=O)NCCN1CCC[C@H](C)C1=O)[C@@H](C)O)[C@@H](C)O)[C@@H](C)CC)C(C)C)C(N)=O)C(=O)O (single isomer, unassigned) [Compound 207]
[2]
  Emax: 68%

Reference: patent US20260176320A1, “MODULATORS OF G-PROTEIN COUPLED RECEPTORS” (priority 2018, published 2026)
